Laboratory results as given in PMC9011347, “Small-Molecule Inhibitors Targeting Lipolysis in Human Adipocytes” (Journal of the American Chemical Society, 2022).

Assay: Serum stability of ATGL inhibitors (UHPLC-MS)
Type: in vitro ADME, human
Details: 3 h at 37 °C
Protocol: Figure 2 Development and characterization of the human ATGL inhibitor NG-497. (a) Structure and IC50 values of human ATGL inhibitors. (b) Dose-dependent inhibition of human ATGL by respective inhibitors. (c) ATGL activity was determined at the indicated substrate concentrations in the absence and presence of NG-497 (0.5 μM). Ki was determined by nonlinear regression analysis using GraphPad Prism. Lineweaver–Burk analysis of ATGL inhibition is shown in the inset. (d) Toxicity of NG-497 in HepG2 cells was determined after 24 h incubation at indicated concentrations. Cisplatin and DMSO were used as positive and negative controls, respectively. Cytotoxicity was determined using the Roche LDH Kit and calculated as relative LDH release compared to fully lysed cells. (e) Stability of NG-497 was analyzed via ultrahigh-performance liquid chromatography–mass spectrometry (UHPLC-MS) after incubation in human serum for 0 or 3 h at 37 °C. Atglistatin and a chemically related unstable compound were used as controls. […] NG-497 concentrations/well were determined at the indicated time points using UHPLC-MS. […] Statistical significance was determined via t test (*p < 0.05; **p < 0.01; ***p < 0.001) or ANOVA followed by Bonferroni post hoc test (^###p < 0.001). […] The detected 297 lipid species of both groups were analyzed with supervised multivariate analysis OPLS-DA and are shown as a loading plot. […]

## CN(C)C(=O)Nc1cccc(-c2ccc(N(C)C)cc2)c1 [Atglistatin, reference compound]
  stability in human serum: not metabolized

## CCOc1ccc(-c2cc(OC)cc(C(=O)OC(C)C)n2)cc1 [NG-497]
  stability in human serum: not metabolized
